The source of these data is patent publication US20230159436A1, “APPLICATIONS OF AMIDE ANALOGS OF TRITERPENES IN CURES OF CANCER AND OTHER DISEASES” (Pacific Arrow Limited, priority 2021, published 2023).

For data set [1], the system named is cancer growth, cancer invasion, cells invasion or cancer cell invasion. Put plainly: Inhibition of cancer growth and invasion (anti-cancer activity). The data set is classed as cell-based. An excerpt: The program is based on the purification methods and biological assays including the MTT assay as described in International Application No. PCT/US05/31900, filed Sep. 7, 2005, U.S. Ser. No. 11/289,142, filed Nov. 28, 2005, and U.S. Ser. No. 11/131,551, filed May 17, 2005, and PCT/US2008/002086, 1188-ALA-PCT, filed Feb. 15, 2008, Ser. No. 12/344,682, 1020-B1-US, filed Dec. 29, 2008, US009499577B2, filed Jun. 24, 2014. The details of Analysis of gene expression of ES2 cells after Y-treatment by Microarray, Data Analysis Methods and Western blot in PCT/US2008/002086, 1188-ALA-PCT, filed Feb. 15, 2008, and the cell invasion experiments methods in International Application PCT/US2010/0042240, filed Jul. 16, 2010.

In another data set the test system is ovarian cancer cells. The experiment in a line: Inhibiting growth of ovarian cancer cells. Type of data set: cell-based.
Data set [2] has as its system U2OS, H460, HTB-9, ES2, HCT116, Capan, OVCAR3, DU145, SK-Mel-5, KB, A498, MCF-7, HepG2, T98G, K562, HeLa. The experiment in a line: MTT Cytotoxic Assay of reaction products and isolated compounds. The data set is classed as cell-based. An excerpt: The peaks, fractions and compounds are selected according to the activities of times studies and the changes of peaks. Selecting the HPLC fractions for isolation is according to the cytotoxic activity of the reaction product obtained at a specific time. The compounds having strong to weak activities are selected and isolated. Selecting the HPLC fractions for isolation may be according to the cytotoxic activity of times studies and the change of peaks. The anti cancer activities are the MTT studies of bone (U2OS), lung (H460), bladder (HTB-9), ovary (ES2), colon (HCT116), pancreas (Capan), ovary (OVCAR3), prostate (DU145), skin (SK-Mel-5), mouth (KB), kidney (A498), breast (MCF-7), liver (HepG2), brain (T98G), luekemia (K562), cervix (HeLa).
Esterification, amidation, amination, or sulfonamidation of compound (A), (B), (C), (D1), (D2), (E), (F), (G), (H1), (H2), E4A, E4A2Y, E4D, E4D1, (P1), P(2), terpene, isoprene, triterpenes, hydroxylated triterpenes, with acyl halide, wherein the halide comprise chloride, bromide, fluoride and iodide, wherein the acyl halide comprise acyl chloride, wherein acyl chloride comprise tigloyl chloride, angeloyl chloride, acetyl chloride, crotonoyl chloride, 3,3-dimethylartyloyl chloride, senecioyl chloride, cinnamoyl chloride, pentenoyl chloride, hexanoyl chloride, benzoyl chloride, ethylbutyryl chloride, propionyl chloride, 2-propenoyl chloride, isobutyryl chloride, butyryl chloride, (2E)-2-pentenoyl chloride, 4-Pentenoyl chloride, 5-hexenoyl chloride, heptanoyl chloride, octanoyl chloride, nonanoyl chloride, decanoyl chloride, Lauroyl chloride, myristoyl chloride, oleoyl chloride. The compounds vary in composition when the time or temperature of the reaction is changed. The peaks, fractions and compounds are selected according to the activities of times studies and the changes of peaks. The compounds having strong to weak activities are selected and isolated. The anti cancer activities (Cytotoxic Assay) are the MTT studies of bone (U2OS), lung (H460), bladder (HTB-9), ovary (ES2), colon (HCT116), pancreas (Capan), ovary (OVCAR3), prostate (DU145), skin (SK-Mel-5), mouth (KB), kidney (A498), breast (MCF-7), liver (HepG2), brain (T98G), luekemia (K562), cervix (HeLa). The active esterification, amidation, amination, or sulfonamidation products are purified with HPLC. The reaction product of mixtures and individual compounds are tested with MTT Cytotoxic Assay. Details of method are in Experiment 3 of the present application. A second esterification of compound can be selected from the above experiment results to produce new active compounds. A partial esterification compound is selected from the above experiments to perform a second or repeated with a third esterification with different acyl chloride in order to produce new active compounds with the experiments in the present application. The active compounds of this invention are triterpenes in form of amine, sulfonamides, amide, and urea analogs, providing extremely stable activity in solution. They prolong the activities and duration of drug in a subject.
(§1) Cells. HTB-9 (bladder), HeLa-S3 (cervix), DU145 (prostate), H460 (lung), MCF-7 (breast), K562 (leukemia), HCT116 (colon), HepG2 (liver), U2OS (bone), T98G (brain), SK-MEL-5 (Skin) and OVCAR 3, ES2 (ovary), Pancreas (Capan), Mouth (KB), Kidney (A498).
MTT Assay. The procedure for MTT assay followed the method described by Carmichael et al. (1987) with modifications. The cells were seeded into a 96-well plate at for 24 hours before drug-treatment. The cells were then exposed to the drugs for 48, 72, or 96 hours. After the drug-treatment, MTT (0.5 mg/mL) was added to cultures and incubated for an hour. The formazan (product of the reduction of tetrazolium by viable cells) formed and was dissolved with DMSO and the O.D. at 490 nm, and was measured by an ELISA reader. The MTT level of the cells before drug-treatment was also measured (T0). […]

The next data set has as its system red blood cells (RBC). Put plainly: Haemolytic assay. The data set is classed as cell-based, human. The procedure: Erythrocytes (RBC) were isolated from human blood (EDTA whole blood, collected randomly). 50 ul of the 10% RBC suspension (in PBS) was added to 2 ml of sample solutions (concentration range from 0.1 ug/ml to 400 ug/ml) in PBS. The mixture was vortexed briefly and sat for 60 min at room temperature. The mixture was spun at 3K for 10 min and the relative amounts of lysed hemoglobin in the supernatant were measured at 540 nm. The synthetic compounds of present application were tested with this method.

The next data set has as its system OVCAR3. The experiment in a line: MTT assay, ovary (OVCAR3). Type of data set: cell-based. On the procedure: as §1
MTT Assay. The procedure for MTT assay followed the method described by Carmichael et al. (1987) with modifications. The cells were seeded into a 96-well plate at for 24 hours before drug-treatment. The cells were then exposed to the drugs for 48, 72, or 96 hours. After the drug-treatment, MTT (0.5 mg/mL) was added to cultures and incubated for an hour. The formazan (product of the reduction of tetrazolium by viable cells) formed and was dissolved with DMSO and the O.D. at 490 nm, and was measured by an ELISA reader. The MTT level of the cells before drug-treatment was also measured (T0). The % cell-growth (% G) is calculated as: % G=(TD−T0/TC−T0)×100(1), where TC or TD represents O.D. readings of control or drug-treated cells.
When T0>TD, then the cytotoxicity (LC) expressed as % of the control is calculated as: % LC=(TD−T0/T0)×100(2).

Converted amounts (≈) assume the structure as drawn. Like-named read-outs stand apart in the source and are kept apart here.

On to `CC1O[C@@H](O[C@H]2C(O)[C@@H](O)C(C)O[C@H]2O[C@H]2C(O)[C@@H](O)C(CO)O[C@H]2OC2[C@H](O)C(C(=O)O)O[C@@H](O[C@H]3CC[C@@]4(C)C(CC[C@]5(C)C4CC[C@]46O[C@H](O)[C@]7(C4CC(C)(C)[C@@H](O)[C@@H]7O)[C@H](O)C[C@]65C)C3(C)C)[C@H]2O[C@@H]2OC(CO)[C@H](O)C(O)[C@@H]2O)[C@@H](O)C(O)[C@H]1O` (some centres unmarked) [AKOH-M10, reference compound], for which the “inhibiting cancer growth, cancer invasion, cells invasion or cancer cell invasion” value (from here on “inhibiting cancer growth”) in data set [1] is reported as “do not show the ability”.
`CC1(C)CC2C3=CCC4[C@@]5(C)CC[C@H](O[C@@H]6OC(C(=O)O)[C@@H](O)C(O[C@@H]7O[C@@H](CO)C(O)[C@@H]7O)[C@@H]6O[C@@H]6OC(CO)[C@H](O)C(O)[C@@H]6O)C(C)(C)C5CC[C@@]4(C)[C@]3(C)[C@@H](O)[C@@H](O)[C@@]2(CO)[C@@H](O)[C@@H]1O` (some centres unmarked) [AKOH-Y, reference compound]: the “inhibiting cancer growth” value in data set [1] is on record as “do not show the ability”.
Regarding `C/C=C(/C)C(=O)O[C@@H]1[C@H](C)CC2C3=CCC4[C@@]5(C)CC[C@H](O[C@@H]6OC(C(=O)O)[C@@H](O)C(O[C@@H]7O[C@@H](CO)C(O)C7O)C6O[C@@H]6OC(CO)[C@H](O)C(O)C6O)C(C)(C)C5CC[C@@]4(C)[C@]3(C)[C@@H](O)[C@@H](O)[C@@]2(CO)[C@H]1OC(=O)/C(C)=C\C` (stereo partly drawn) [Compound Y, 3-O-[β-D-galactopyranosyl (1→2)]-α-L-arabinofuranosy (1→3)-β-D-glucuronopyranosyl-21,22-O-diangeloyl-3β,15α,16α,21β,22α,28-hexahydroxyolean-12-ene], the IC50 with ovarian cancer cells is around 1.5 µg/mL (≈ 1.33 µM).
Turning to `CC1(C)CC2C3=CCC4[C@@]5(C)CC[C@H](O)[C@](C)(CO)C5CC[C@@]4(C)[C@]3(C)C[C@@H](O)[C@@]2(CO)[C@@H](O)[C@@H]1O` (some centres unmarked) [E4A], the MTT cytotoxic activity result in data set [2] (FIG. 8, FIG. 10) is reported as “no activity”. The hemolytic activity result in the data set on red blood cells (RBC) is given as “no hemolytic activity”. In data set [1], the anti-cancer activity result is on record as “no anti-cancer activity” and the “inhibiting cancer growth” value was “no effect”.
On to `CC1(C)CC2C3=CCC4C5(C)CCC(N)C(C)(CN)C5CCC4(C)C3(C)CC(N)C2(CN)C(N)C1N` (centres unmarked) [E4D1], for which the Cytotoxicity activity entry was “none and moderate and NONE” in data set [2]; “none” in data set [2] (listed as E1E4D1); “none” in data set [2] (listed as I 1E4D1). The hemolytic activity result in the data set on red blood cells (RBC) is recorded as “no hemolytic activity”. Also, the anti-cancer activity result in data set [1] was “no anti-cancer activity”. Further, the “inhibiting cancer growth” value in data set [1] is reported as “no effect”.
Take `CC1(C)CC2C3=CCC4C5(C)CCC(O)C(C)(CN)C5CCC4(C)C3(C)CC(O)C2(CN)C(O)C1O` (centres unmarked) [E4D]: the Cytotoxicity activity entry in data set [2] was “none and None”. The hemolytic activity result in the data set on red blood cells (RBC) is listed as “no hemolytic activity”. Moreover, in data set [1], the anti-cancer activity entry was “no anti-cancer activity” and the “inhibiting cancer growth” value is listed as “no effect”.
As to `CC=C(C)C(=O)OCC1(C)C(O)CCC2(C)C1CCC1(C)C2CC=C2C3CC(C)(C)C(O)C(O)C3(CO)C(O)CC21C` (centres unmarked) [Tig-N], the “IC50 of ovary (OVCAR3)” value in the data set with OVCAR3 stood at 18. Also, the anti-cancer activity result in data set [1] is recorded as “have anti cancer activities”.
Taken in the same sequence, the figures for `CC=C(C)C(=O)OCC1(C)C(O)CCC2(C)C1CCC1(C)C2CC=C2C3CC(C)(C)C(O)C(OC(=O)C(C)=CC)C3(CO)C(O)CC21C` (centres unmarked) [Tig-Q] were 23 and “have anti cancer activities”.
As to `CC=C(C)C(=O)OCC1(C)C(O)CCC2(C)C1CCC1(C)C2CC=C2C3CC(C)(C)C(O)C(OC(=O)C(C)=CC)C3(COC(=O)C(C)=CC)C(O)CC21C` (centres unmarked) [Tig-T], the “IC50 of ovary (OVCAR3)” value with OVCAR3 is reported as 25. Further, in data set [1], the anti-cancer activity result is on record as “have anti cancer activities”.
As for `CC=C(C)C(=O)OCC1(C)C(OC(=O)C(C)=CC)CCC2(C)C1CCC1(C)C2CC=C2C3CC(C)(C)C(OC(=O)C(C)=CC)C(O)C3(CO)C(O)CC21C` (centres unmarked) [Tig-U], the “IC50 of ovary (OVCAR3)” value in the data set with OVCAR3 was found to be 27.
As to `CC=C(C)C(=O)OCC1(C)C(O)CCC2(C)C1CCC1(C)C2CC=C2C3CC(C)(C)C(OC(=O)C(C)=CC)C(O)C3(COC(=O)C(C)=CC)C(O)CC21C` (centres unmarked) [Tig-V], the “IC50 of ovary (OVCAR3)” value in the data set on OVCAR3 worked out at 9. For the same compound, in data set [1], the anti-cancer activity result is listed as “have anti cancer activities”.

Usually IC50 stands for the concentration needed to halve the response being measured. A higher IC50 goes with weaker potency in that assay.
